# Active and inactive are the calls of the source. The rule behind the calls is not given here.
# Target: Trace amine-associated receptor 1 (Homo sapiens) (UniProt Q96RJ0)
# Assay: TAAR1 antagonists in human receptor cells, late-stage follow-up, cell-based, fluorescence (AID 743234)
# Settings: TAAR1-expressing cells, fluorescence antagonist readout
# Chain of Trace amine-associated receptor 1 (Homo sapiens) (Q96RJ0 whole entry, looked up): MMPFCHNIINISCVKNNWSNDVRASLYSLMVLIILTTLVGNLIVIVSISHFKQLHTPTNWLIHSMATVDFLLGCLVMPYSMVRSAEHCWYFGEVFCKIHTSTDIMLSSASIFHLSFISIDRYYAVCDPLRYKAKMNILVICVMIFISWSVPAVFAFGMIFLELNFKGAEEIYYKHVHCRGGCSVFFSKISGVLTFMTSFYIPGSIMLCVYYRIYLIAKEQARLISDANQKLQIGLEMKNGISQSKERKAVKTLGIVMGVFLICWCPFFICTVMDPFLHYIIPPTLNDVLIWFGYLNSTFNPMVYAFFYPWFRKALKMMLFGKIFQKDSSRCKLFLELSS
row,IC50,SMILES
1,inactive,O=C(NCCn1cc(SCc2ccccc2F)c2ccccc21)c1c(F)cccc1F
2,> 29900 nM (inactive),COc1cc(NC(=O)c2cc3ccccc3o2)c(OC)cc1Cl
3,1600 nM,Cc1ccc(CSCC(=O)Nc2cc(S(=O)(=O)N3CCOCC3)ccc2OCC(F)(F)F)cc1
4,inactive,COc1cccc(-c2nn(-c3ccccc3)cc2C(=O)Nc2nccs2)c1
5,1730 nM,Cc1cccc(C(C#N)c2nc3ccccc3nc2C(F)(F)F)c1 (stereo not given)
